{"source": "patent US8076324B2", "about": "“Di(hetero)arylcyclohexane derivatives, their preparation, their use and pharmaceutical compositions comprising them” (Sanofi-Aventis, priority 2007, dated 2011)", "key": {"[1]": {"target": "T1, myocardial ATP-sensitive potassium channel (SUR2A/Kir6.2) (UniProt Q61743+Q63563)", "T1 construct": "expressed in transfected cells", "T1 sequence (Q63563 whole entry)": "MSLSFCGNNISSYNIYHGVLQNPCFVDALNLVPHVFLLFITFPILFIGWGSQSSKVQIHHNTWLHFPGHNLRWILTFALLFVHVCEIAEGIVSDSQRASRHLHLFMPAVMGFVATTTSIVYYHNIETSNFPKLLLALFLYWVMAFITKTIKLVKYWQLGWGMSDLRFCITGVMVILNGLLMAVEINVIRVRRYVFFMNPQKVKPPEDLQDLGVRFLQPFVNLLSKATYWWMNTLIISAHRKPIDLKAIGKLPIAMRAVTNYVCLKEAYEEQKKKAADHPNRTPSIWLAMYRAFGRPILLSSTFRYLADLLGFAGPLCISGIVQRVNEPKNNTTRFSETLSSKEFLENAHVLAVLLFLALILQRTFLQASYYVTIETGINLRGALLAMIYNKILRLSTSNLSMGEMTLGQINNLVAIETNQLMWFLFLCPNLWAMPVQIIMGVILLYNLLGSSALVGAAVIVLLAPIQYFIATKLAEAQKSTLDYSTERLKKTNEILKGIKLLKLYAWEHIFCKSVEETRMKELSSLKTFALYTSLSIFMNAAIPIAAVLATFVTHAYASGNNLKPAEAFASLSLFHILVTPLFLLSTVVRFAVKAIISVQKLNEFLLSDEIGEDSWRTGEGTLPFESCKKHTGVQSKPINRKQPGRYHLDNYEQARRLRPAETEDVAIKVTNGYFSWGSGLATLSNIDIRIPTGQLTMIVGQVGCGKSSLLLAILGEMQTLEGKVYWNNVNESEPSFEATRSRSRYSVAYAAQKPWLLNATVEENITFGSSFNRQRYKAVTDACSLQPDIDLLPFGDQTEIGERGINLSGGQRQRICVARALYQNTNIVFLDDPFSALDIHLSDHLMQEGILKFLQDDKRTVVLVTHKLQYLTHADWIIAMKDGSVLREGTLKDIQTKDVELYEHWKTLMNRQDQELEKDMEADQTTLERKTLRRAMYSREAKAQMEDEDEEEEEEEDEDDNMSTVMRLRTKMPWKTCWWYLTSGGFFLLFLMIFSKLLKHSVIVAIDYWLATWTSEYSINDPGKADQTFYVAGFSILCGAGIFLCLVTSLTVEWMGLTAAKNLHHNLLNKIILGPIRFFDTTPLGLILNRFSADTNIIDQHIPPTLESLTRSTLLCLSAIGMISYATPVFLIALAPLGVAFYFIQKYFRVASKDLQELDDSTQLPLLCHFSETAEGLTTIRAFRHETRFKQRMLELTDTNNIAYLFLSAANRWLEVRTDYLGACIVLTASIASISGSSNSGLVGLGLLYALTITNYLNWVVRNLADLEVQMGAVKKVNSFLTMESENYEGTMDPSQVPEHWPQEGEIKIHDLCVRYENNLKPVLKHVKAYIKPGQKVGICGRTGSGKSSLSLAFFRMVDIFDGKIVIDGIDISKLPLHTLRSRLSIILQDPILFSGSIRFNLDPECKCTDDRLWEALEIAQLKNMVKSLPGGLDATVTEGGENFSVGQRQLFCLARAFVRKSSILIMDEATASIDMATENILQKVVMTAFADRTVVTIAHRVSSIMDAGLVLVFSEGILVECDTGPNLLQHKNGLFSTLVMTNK", "T1 sequence (Q61743 whole entry)": "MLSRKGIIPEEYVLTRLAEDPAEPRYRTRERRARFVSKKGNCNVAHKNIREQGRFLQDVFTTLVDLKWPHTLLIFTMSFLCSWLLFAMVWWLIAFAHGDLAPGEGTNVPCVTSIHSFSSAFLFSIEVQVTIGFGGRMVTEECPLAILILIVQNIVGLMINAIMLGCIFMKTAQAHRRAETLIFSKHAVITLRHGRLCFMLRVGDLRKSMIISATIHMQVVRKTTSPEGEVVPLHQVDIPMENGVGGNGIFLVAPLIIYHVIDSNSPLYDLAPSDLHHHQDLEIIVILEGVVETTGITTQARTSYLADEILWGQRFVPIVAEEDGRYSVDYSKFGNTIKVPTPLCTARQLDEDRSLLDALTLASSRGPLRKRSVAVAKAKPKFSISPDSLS", "test": "Rubidium efflux test on HEK293 cells transfected with SUR2A and Kir6.2 (myocardial action)", "format": "cell-based, SUR2A from the rat, Kir6.2 from the mouse", "settings": "HEK293 cells transfected with SUR2A/Kir6.2; KATP channels opened by rilmakalim; 25 min incubation; read-out: IC50 values for the inhibition of the rubidium efflux", "in_short": "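HEK293 cells stably expressing mouse Kir6.2 and rat SUR2A loaded 3 h at 37 °C with 5.4 mM RbCl, then test compound added and channels opened with rilmakalim (2 μM, stock as added) for 25 min at 37 °C. Rb+ in supernatant and lysate by atomic absorption; efflux = supernatant/total, IC50 via Hill equation.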"}}, "data": [{"smiles": "Cc1nc([C@]2(OCC3CC3)CC[C@](C(=O)O)(c3ccc(F)cc3)CC2)n(CC2CC2)c1Br", "note": "[Example 354, Cis-4-(5-Bromo-1-cyclopropylmethyl-4-methyl-1H-imidazol-2-yl)-4-cyclopropylmethoxy-1-(4-fluorophenyl)cyclohexanecarboxylic Acid]", "values": [{"measurement": "IC50", "setting": "[1]", "value": "< 1000", "unit": "nM"}, {"measurement": "melting point", "value": 190, "unit": "°C"}]}, {"smiles": "Cc1nc([C@]2(Oc3ccccc3)CC[C@](C(=O)O)(c3ccccc3)CC2)n(CC2CC2)c1Cl", "note": "[Example 400, Cis 4-(5-Chloro-1-cyclopropylmethyl-4-methyl-1H-imidazol-2-yl)-4-phenoxy-1-phenylcyclohexanecarboxylic Acid]", "values": [{"measurement": "IC50", "setting": "[1]", "value": "< 1000", "unit": "nM"}, {"measurement": "melting point", "value": 170, "unit": "°C"}]}, {"smiles": "Cc1c(C#N)nc([C@]2(OCC3CC3)CC[C@](C(=O)O)(c3ccc(F)cc3)CC2)n1CC1CC1", "note": "[Example 418, Cis-4-(4-Cyano-1-cyclopropylmethyl-5-methyl-1H-imidazol-2-yl)-4-cyclopropylmethoxy-1-(4-fluorophenyl)cyclohexanecarboxylic Acid]", "values": [{"measurement": "IC50", "setting": "[1]", "value": "< 1000", "unit": "nM"}, {"measurement": "melting point", "value": 245, "unit": "°C"}]}, {"smiles": "Cc1c(S(C)(=O)=O)nc([C@]2(OCC3CC3)CC[C@](C(=O)O)(c3ccccc3)CC2)n1CC1CC1", "note": "[Example 422, Cis-4-Cyclopropylmethoxy-4-(1-cyclopropylmethyl-5-methyl-4-methanesulfonyl-1H-imidazol-2-yl)-1-phenylcyclohexanecarboxylic Acid]", "values": [{"measurement": "IC50", "setting": "[1]", "value": "< 1000", "unit": "nM"}, {"measurement": "melting point", "value": 242, "unit": "°C"}]}]}
